Measured values published in patent US12162918B2, “Periostin compounds for the treatment of haematological complications” (Chemotherapeutisches Forschungsinstitut Georg-Speyer-Haus, priority 2018, dated 2024).

What was measured:
F4/80+ macrophages = assay: Macrophage coculture assay and periostin in macrophage conditioned medium; assay type: cell-based, mice
From the text: For the macrophage coculture assay F4/80+ macrophages were sorted from the bone marrow of control or warfarin-treated mice, plated and cocultured with 20,000-30,000 Lin− BM cells as from the following day.

Actin DsRed+ Lin− cells = assay: Intrafemoral cotransplantation of treated murine stroma cells with untreated Lin− cells; assay type: in vivo, mice; conditions: cotransplanted with warfarin- vs vehicle-treated stroma
Procedure: For the intrafemoral co-transplantation experiments 0.8×10^5 human CD34+ cells or 1×10^5 Lin− cells from Actin-DsRed reporter mice were mixed with 5×10^5 human or murine stroma cells which had been expanded in vitro and pretreated with vehicle or 2 μM warfarin for 14 days. The human stromal cells had been obtained via flushing of discarded bones from the orthopedic operating room, as approved of by the local ethics committee.

[1] = tested on: Nestin-GFP or Col2.3 kb GFP mice; assay: Enumeration of Nestin-GFP+ MSC and Col2.3 kb GFP+ osteoblastic cells in bones; assay type: in vivo; conditions: warfarin 14 days
From the text: 7 to 10 week old C57BL6/N (CD45.2) or SJL (CD45.1; B6.SJL-Ptprca Pepcb/BoyJ), Col1a1 2.3 kb-GFP (kind gift from D. Rowe), Nestin-GFP (Mignone et al., 2004) and periostin knockout mice (kind gift from Juerg Huelsken) were used for these experiments. NOD SCID interleukin (IL)-2 receptor γ deficient (NSG) mice were purchased from Charles River Laboratories (Sulzfeld, Germany) and bred in our facility. All animal studies were approved by the local German government (Regierungspräsidium Darmstadt) in Hessen, Germany, and by the Institutional Animal Care and Use Committee (IACUC) of Boston University.
0.5 mg/kg/d or 0.05 mg/kg/d of warfarin, resuspended in phosphate-buffered saline was administered to mice via subcutaneously implanted osmotic minipumps (ALZET minipumps, Cupertino, CA). The osmotic minipumps were changed after 14 days (if the experiment went beyond 14 days of treatment). Sham operated (skin incision and suture) mice served as controls. Warfarin treatment continued for 10-14 days. In the xenotransplantation experiments the mice were treated with warfarin via the drinking water (or normal drinking water) at a dose of 0.72 mg/100 ml for a total of 3 days a week (Pfeilschifter et al., 2011).

CC(=O)CC(c1ccccc1)c1c(O)c2ccccc2oc1=O (stereo not drawn) [warfarin]
percentage of Annexin V+ apoptotic leukocytes (F4/80+ macrophages; untreated Lin− cells on warfarin-treated sorted F4/80+ macrophages, P=0.034): increased
total periostin levels in conditioned medium from macrophages (F4/80+ macrophages; vehicle- versus warfarin-treated macrophages, coimmunoprecipitation): no significant reduction
engraftment of donor-derived myeloid cells (Actin DsRed+ Lin− cells; P=0.023): decreased engraftment
engraftment of total donor bone marrow (Actin DsRed+ Lin− cells; P=0.025): decreased engraftment
number of Col2.3 kb+ osteoblastic cells [1]: n.s. and no reduction
number of Nestin+ MSC ([1]; P=0.047): significant reduction
